ChEMBL document CHEMBL1151467, “Antimicrobial resistance genes associated with Salmonella enterica serovar newport isolates from food animals” (2008)
In brackets after ≈: the same amount, converted by molar mass.

Assays:
[1] = tested on: Salmonella enterica subsp. enterica; assay: Antibacterial activity against aacC-expressing Salmonella enterica subsp. enterica serovar Newport isolated from food animals; assay type: functional, organism-based
[2] = tested on: Salmonella enterica subsp. enterica; assay: Antibacterial activity against susceptible Salmonella enterica subsp. enterica serovar Newport isolated from food animals; assay type: functional, organism-based
[3] = tested on: Salmonella enterica subsp. enterica; assay: Antibacterial activity against blaCMY-expressing Salmonella enterica subsp. enterica serovar Newport isolated from food animals; assay type: functional

Question: What does the source list for GENTAMICIN?
Answer: MIC [1]: 1 µg/mL; MIC [2]: < 0.25 µg/mL

Question: How did the MIC [3] turn out when `CO/N=C(\C(=O)N[C@@H]1C(=O)N2C(C(=O)O)=C(CSc3nc(=O)c(O)nn3C)CS[C@H]12)c1csc(N)n1` [CEFTRIAXONE] was run?
Answer: 16 µg/mL (≈ 28.9 µM)
